US20050220726A1, “Use of sugar esters in cosmetic and/or pharmaceutical preparations” (priority 2003, published 2005)

Tests used:
[1] = test system: Staphylococcus aureus; test: Agar diffusion method, inhibition zones; assay type: cell-based; settings: filter paper with 20 μl test substance; 18 to 24 h at 37° C.
Procedure: (§1) The antibacterial activity of the test substances was tested by the diffusion method on agar plates or the agar dilution method. In this method, a round filter paper of defined diameter is first impregnated with the test solution and then applied to the surface of an agar plate inoculated beforehand with the test microorganisms. The size of the inhibition zones is then determined after defined times. In particular, it is possible by this method to determine the MIC (Minimum Inhibitory Concentration) as the lowest concentration of test substance with which complete inhibition of the microorganisms can be obtained.
(§2) Agar diffusion method. The inoculum was prepared using a fresh culture in a stationary growth phase (after ca. 18-24 h) in a BHI solution (brain-heart Infusion). The bacterial suspension was adjusted to 0.5 MacFarland units, corresponding to 1.5 10^8 colony-forming units (cfu)/ml; the suspension was then diluted with a sodium chloride solution (1:100) to adjust a value of 1.5 10^6 cfu/ml. Mueller-Hinton agar (Staphylococcus epidermidis, Staphylococcus aureus) and Wilkins-Chalgrens agar containing 5% by weight sheep's blood (Propionibacterium acnes) were then sterilized for 15 mins. at 121° C. and then placed in Petri dishes. 2 to 4 ml of the bacterial suspension were then added to the Petri dishes, followed by drying at room temperature. The filter papers were impregnated with 20 μl of the test substances and applied to the surface of the agar plates. The inoculated Petri dishes were incubated for 18 to 24 h at 37° C. (the Petri dishes containing Propionibacterium acnes under anaerobic conditions) and the antimicrobial activity was then determined by determination of the growth inhibition zones. The results are set out in Table 10 and represent the diameters of the inhibition zones in mm.

[2] = test system: Staphylococcus epidermidis; test: Agar diffusion method, inhibition zones; assay type: cell-based; settings: filter paper with 20 μl test substance; 18 to 24 h at 37° C.
Procedure: as §1, §2

[3] = test system: Propionibacterium acnes; test: Agar diffusion method, inhibition zones; assay type: cell-based; settings: filter paper with 20 μl test substance; 18 to 24 h at 37° C., anaerobic
Procedure: as §1, §2

[4] = test system: human fibroblasts; test: Anti-stress effect on UV-A-damaged fibroblasts; assay type: cell-based; settings: + UV-A 20 J/cm^2; for Cell proteins: blank sample = 100; for GSH/proteins: blank sample = 100, blank + UV-A = 65
Procedure: UV-A radiation in the 320 to 400 nm range induces oxidative stress which is mainly produced by the activation of photosensitive biological components which in turn catalyze the formation of ROS-like superoxide anions, hydrogen peroxide and singlet oxygen atoms. The anti-UV-A effect was tested on fibroblasts because UV-A radiation penetrates through the dermis where it causes oxidative damage by lipoperoxidation of the cell membrane and a reduction in the content of reduced glutathione (GHS). To this end, human fibroblasts were cultivated as described in a), exposed to UV-A rays (20 J/cm^2) and the cell counts and the GSH content subsequently determined. The results are set out in Table 3, where they are expressed in %-rel. against a blank sample, and represent the results of 3 series of measurements with triple determination.

[5] = test system: bacterial collagenase (clostridium histolyticum); test: Collagenase inhibition on FITC-marked gelatin; assay type: biochemical; settings: 60 mins. at 20° C.
Procedure: In the event of inflammation, skin proteases, for example collagenase, are released from the polymorphonuclear neutrophilic granulocytes or macrophages. A similar process takes place in the skin of elderly people on exposure to UV rays. As already mentioned, the proteases—also known as matrix metalloproteases (MMPs) through their content of central zinc ions—catalyze the fragmentation of connective tissue proteins. The test substances were tested for collagenase inhibition using bacterial collagenase (clostridium histolyticum) on gelatin marked with fluorochromium (FITC, Calbiochem) as a natural nutrient medium. The incubation time was 60 mins. at 20° C.; the hydrolysis of the substrate was monitored by fluorescence at 393 nm (excitation at 328 nm). The results are set out in Table 6 as the collagenase inhibition in %.

[6] = test system: melanocytes (B16 cell line); test: Inhibition of melanin synthesis in B16 melanocytes; assay type: cell-based; settings: 3 days, blank value = 100
Procedure: Melanin is the pigment responsible for the color of the skin and hair. It is formed in special organelles, the melanosomes, which occur in the melanocytes of the basal layer of the human epidermis. The biosynthesis of melanin begins with the amino acid tyrosine which is oxidized to DOPA (dihydroxyphenylalanine) in the presence of tyrosinase. The DOPA then polymerizes to melanin. […] After incubation for 3 days at 37° C./5% CO2, the nutrient medium was replaced by a solution containing the test substances in various concentrations. After incubation for another 3 days, the cell protein content (Bradford's method) and the content of synthesized melanin were determined through the optical density of the homogenizate at 475 nm. The results are expressed in % against a blank value and are set out in Table 7.

[7] = test system: human leukaemic granulocytes; test: Anti-inflammatory activity: respiratory burst of granulocytes (zymosan, luminol); assay type: cell-based; settings: + stimulation (zymosan), blank + stimulation = 100
Source text: In the course of cutaneous inflammation, leucocytes, such as the polymorphonuclear neutrophilic granulocytes (PMNs) for example, are stimulated by peptides, such as cytokines for example, to emit messenger substances, such as leucotriene for example, which are released from activated or necrotic cells in the dermis. These activated PMNs release not only pro-inflammatory cytokinins, leucotrienes and proteases, but also ROS, such as superoxides and hypochlorite anions for example, of which the function is to destroy penetrated pathogenic germs or fungi. This activity of the PMNs during the inflammation is known as so-called respiratory burst. To investigate to what extent the test extracts can prevent or reduce the respiratory burst, a cell line of human leukaemic granulocytes of these PMNs was incubated together with the test substances at 37° C. and 5% by vol. CO2. After the respiratory burst had been initiated by addition of a yeast extract (zymosan) to the cell solution, the release of superoxide anions was determined through their reaction with luminol.

[8] = test system: human keratinocytes; test: Growth inhibition on human keratinocytes with EGF; assay type: cell-based; settings: with EGF 10 ng/ml, 3 days, control = 100, control with EGF = 167
Procedure: Increased proliferation and differentiation of keratinocytes of the hair matrix leads to improved longer hair growth. The following test was carried out to determine the potential of the sugar esters for inhibiting hair growth which is visibly reflected in a reduction in the proliferation of human keratinocyte culture in vitro.
To this end, human keratinocytes were cultivated in a standard cell culture medium containing foetal calf serum (FCS). After incubation for 1 day at 37° C./5% CO2, the growth medium was replaced by standard medium containing 10 ng/ml epidermal growth factor (EGF) and various concentrations of sugar esters dissolved in ethanol (1% by volume).
After incubation for three days, the number of living cells was determined by determining the cell protein content by the Bradford method [Bradford, M. M., A rapid and sensitive method for the quantitation of microgram quantities of protein utilizing the principle of protein-dye binding. Anal. Biochem. (1977), Vol. 72, pp. 248-254].
The results of Table 8 represent the values of triple determinations on two batches expressed in % against a control of cell culture medium without sugar ester.

[9] = test system: human keratinocytes; test: Protecting cells against UVB radiation (cell DNA, LDH and PGE2 release); assay type: cell-based; settings: + UV-B 50 mJ/cm^2; for Cell DNA: blank = 100, control + UV-B = 33; for LDH released / PGE2 released: control + UV-B = 100
Procedure: UVB was selected as the stress factor because the rays produce cutaneous inflammation (erythemas, oedemas) by activating enzymes that release arachidonic acid, such as phospholipase A2 (PLA2) for example. […] The influence of UVB rays on keratinocytes was determined in vitro through the release of cytoplasmatic enzymes, such as LDH (lactate dehydrogenase) for example, which runs parallel to the cell damage and the formation of PGE2. […] The quantity of keratinocytes was determined after trypsination via a cell counter while the LDH concentration was enzymatically determined. The results are set out in Table 4, where they are expressed as the activity in %-rel. against a standard, and represent the mean value of two test series involving double determination.

Glucose caprylate
Inhibition zones, Staphylococcus aureus [1]: 11 mm
Inhibition zones, Staphylococcus epidermidis [2]: 0 mm
Inhibition zones, Propionibacterium acnes [3]: 12 mm

Trehalose caprate
Inhibition zones, Staphylococcus aureus [1]: 10 mm
Inhibition zones, Staphylococcus epidermidis [2]: 0 mm
Inhibition zones, Propionibacterium acnes [3]: 10 mm
Cell proteins ([4]; conc. 0.00003 % w/v): 120 %-rel.
GSH/proteins ([4]; conc. 0.00003 % w/v): 87 %-rel.
Collagenase inhibition ([5]; Conc. [w/v] 0.3): 52 %-rel.
Cell melanin ([6]; conc. 0.001 % w/v): 53 %-rel.
Cell proteins ([6]; conc. 0.001 % w/v): 100 %-rel.
Cell melanin ([6]; conc. 0.003 % w/v): 23 %-rel.
Cell proteins ([6]; conc. 0.003 % w/v): 75 %-rel.

Fructose palmitate
Cell proteins ([4]; conc. 0.003 % w/v): 91 %-rel.
GSH/proteins ([4]; conc. 0.003 % w/v): 81 %-rel.
Cell counts ([7]; conc. 0.001 % w/v): 97 %-rel.
ROS released ([7]; conc. 0.001 % w/v): 81 %-rel.
Cell counts ([7]; conc. 0.01 % w/v): 98 %-rel.
ROS released ([7]; conc. 0.01 % w/v): 42 %-rel.
Collagenase inhibition ([5]; Conc. [w/v] 0.03): 4 %-rel.
Collagenase inhibition ([5]; Conc. [w/v] 0.1): 41 %-rel.
Collagenase inhibition ([5]; Conc. [w/v] 0.3): 78 %-rel.
Cell protein content in % ([8]; conc. 0.001 % w/v): 166%
Cell protein content in % ([8]; conc. 0.003 % w/v): 143%
Cell protein content in % ([8]; conc. 0.01 % w/v): 105%

Sucrose stearate
Cell melanin ([6]; conc. 0.001 % w/v): 75 %-rel.
Cell proteins ([6]; conc. 0.001 % w/v): 89 %-rel.
Cell melanin ([6]; conc. 0.003 % w/v): 18 %-rel.
Cell proteins ([6]; conc. 0.003 % w/v): 70 %-rel.

Glucose palmitate
Cell proteins ([4]; conc. 0.003 % w/v): 119 %-rel.
GSH/proteins ([4]; conc. 0.003 % w/v): 114 %-rel.
Cell counts ([7]; conc. 0.001 % w/v): 102 %-rel.
ROS released ([7]; conc. 0.001 % w/v): 99 %-rel.
Cell counts ([7]; conc. 0.01 % w/v): 91 %-rel.
ROS released ([7]; conc. 0.01 % w/v): 58 %-rel.
Cell DNA ([9]; conc. 0.001 % w/v): 32 %-rel.
LDH released ([9]; conc. 0.001 % w/v): 68 %-rel.
PGE2 released ([9]; conc. 0.001 % w/v): 63 %-rel.
Cell DNA ([9]; conc. 0.003 % w/v): 32 %-rel.
LDH released ([9]; conc. 0.003 % w/v): 68 %-rel.
PGE2 released ([9]; conc. 0.003 % w/v): 65 %-rel.

Fructose stearate
Cell proteins ([4]; conc. 0.003 % w/v): 83 %-rel.
GSH/proteins ([4]; conc. 0.003 % w/v): 79 %-rel.
Cell counts ([7]; conc. 0.001 % w/v): 100 %-rel.
ROS released ([7]; conc. 0.001 % w/v): 88 %-rel.
Cell counts ([7]; conc. 0.01 % w/v): 155 %-rel.
ROS released ([7]; conc. 0.01 % w/v): 26 %-rel.
Collagenase inhibition ([5]; Conc. [w/v] 0.3): 45 %-rel.
Cell melanin ([6]; conc. 0.006 % w/v): 49 %-rel.
Cell proteins ([6]; conc. 0.006 % w/v): 105 %-rel.
Cell melanin ([6]; conc. 0.01 % w/v): 21 %-rel.
Cell proteins ([6]; conc. 0.01 % w/v): 76 %-rel.

Fructose dicaprate
Cell melanin ([6]; conc. 0.003 % w/v): 88 %-rel.
Cell proteins ([6]; conc. 0.003 % w/v): 105 %-rel.
Cell melanin ([6]; conc. 0.01 % w/v): 41 %-rel.
Cell proteins ([6]; conc. 0.01 % w/v): 91 %-rel.

Glucose laurate
Inhibition zones, Staphylococcus aureus [1]: 14 mm
Inhibition zones, Staphylococcus epidermidis [2]: 16 mm
Inhibition zones, Propionibacterium acnes [3]: 10 mm
Cell proteins ([4]; conc. 0.0001 % w/v): 95 %-rel.
GSH/proteins ([4]; conc. 0.0001 % w/v): 91 %-rel.
Cell DNA ([9]; conc. 0.001 % w/v): 17 %-rel.
LDH released ([9]; conc. 0.001 % w/v): 105 %-rel.
PGE2 released ([9]; conc. 0.001 % w/v): 107 %-rel.
Cell DNA ([9]; conc. 0.003 % w/v): 54 %-rel.
LDH released ([9]; conc. 0.003 % w/v): 49 %-rel.
PGE2 released ([9]; conc. 0.003 % w/v): 23 %-rel.
Collagenase inhibition ([5]; Conc. [w/v] 0.1): 28 %-rel.

Glucose caprate
Cell proteins ([4]; conc. 0.003 % w/v): 109 %-rel.
GSH/proteins ([4]; conc. 0.003 % w/v): 144 %-rel.
Cell DNA ([9]; conc. 0.003 % w/v): 28 %-rel.
LDH released ([9]; conc. 0.003 % w/v): 72 %-rel.
PGE2 released ([9]; conc. 0.003 % w/v): 50 %-rel.
Cell DNA ([9]; conc. 0.01 % w/v): 36 %-rel.
LDH released ([9]; conc. 0.01 % w/v): 48 %-rel.
PGE2 released ([9]; conc. 0.01 % w/v): 28 %-rel.

Trehalose laurate
Cell proteins ([4]; conc. 0.003 % w/v): 119 %-rel.
GSH/proteins ([4]; conc. 0.003 % w/v): 90 %-rel.
Collagenase inhibition ([5]; Conc. [w/v] 0.1): 21 %-rel.

Fructose monostearate
Cell melanin ([6]; conc. 0.001 % w/v): 85 %-rel.
Cell proteins ([6]; conc. 0.001 % w/v): 104 %-rel.
Cell melanin ([6]; conc. 0.003 % w/v): 34 %-rel.
Cell proteins ([6]; conc. 0.003 % w/v): 91 %-rel.
